Measured values reported in patent US9616047B2, “Inhibitors of beta-catenin in treatment of colorectal cancer” (Regents of the University of Minnesota, priority 2014, dated 2017).
Entries after “also recorded” stand apart in the source; their conditions may differ.

Experiments:
[1] = system: HCT116 colon cancer cells; experiment: Soft agar assay, anchorage-independent growth, HCT116; type: cell-based
Description: (§1) FIG. 2. […] HCT116 and HT-29 colon cancer cells. Colony formation of two cell lines were inhibited by treatment of β-catenin inhibitor candidates. Cells (8×10^3/ml) were incubated with or without HI-B5 or HI-B9 compounds in 1 mL of 0.33% BME agar containing 10% FBS or in 3.5 mL of 0.5% BME agar containing 10% FBS. The cultures were maintained at 37° C. in a 5% CO2 incubator for 7 days, after which the cell colonies were counted under a microscope.
(§2) Cells (8×10^3 per well) suspended in Basal Medium Eagle (BME) supplemented with 10% FBS were added to 0.3% agar with different doses of chemicals in a top layer over a basal layer of 0.6% agar. The cultures were maintained at 37° C. in a 5% CO2 incubator for 2 wk and then colonies were counted under a microscope using the Image-Pro Plus Software (v.4) program (Media Cybernetics).

[2] = system: β-catenin; experiment: Ex vivo pull-down with compound-conjugated Sepharose 4B beads and colon cancer cell lysate: β-catenin; type: binding; details: colon cancer cell lysates; compound-conjugated Sepharose 4B beads
Description: (§3) Protein extracts (500 μg) of colon cancer cells were mixed with Sepharose-4B beads (as a negative control) or chemical-conjugated Sepharose 4B beads (100 μl) in reaction buffer. After being washed five times with buffer, the proteins were visualized by Western blot analysis.

[3] = system: target genes expressed by β-catenin/Tcf-4 complex; experiment: Quantitative real-time PCR of β-catenin/Tcf-4 target genes; type: cell-based; details: HI-B5 40 μM or HI-B9 20 μM; 12 hr of treatment
Description: FIGS. 3A-D. HI-B5 and HI-B9 reduce mRNA expression level of target genes expressed by β-catenin/Tcf-4 complex. (A) axin2, (B) cyclin D1, (C) c-myc and (D) pparδ mRNA expression was reduced by HI-B5 40 μM or HI-B9 20 μM treatment. Esculetin was used as a positive control. Expression level of each gene was detected after 12 hr of chemical treatment.
RNA isolation was performed according to the Trizol reagent protocol (catalog #15596-018, Invitrogen). The concentration and the purity of RNA was determined by measuring the absorbance at 260/280 nm. cDNA was synthesized using 1 μg of RNA and the amfiRevert Platinum cDNA synthesis master mix (GenDEPOT, Cat. No. R5600). For real time PCR, 1 μl of the synthesized cDNA was loaded into 1 well of a 96-well plate for detection of specific target genes using the Power SYBR Green PCR master mix (ABsystems, #4367659).

[4] = system: β-catenin/Tcf-4 luciferase activity; experiment: β-catenin/Tcf-4 luciferase reporter assay (TOP-flash/FOP-flash) in HCT116; type: cell-based; details: normalized to Renilla, 24 h treatment
Description: (§4) FIGS. 1A-C. HI-B1, HI-B5 and HI-B9 inhibit beta-catenin/Tcf-4 luciferase activity in colon cancer cell lines. (A) Chemical structures of three compounds. (B-C) Effects of HI-B1, HI-B5 and HI-B9 on the β-catenin/Tcf-4 luciferase activity in HCT116 (B) and HT29 (C) colon cancer cell lines. […] Colon cancer cells were co-transfected with reporter genes harboring the β-catenin/Tcf binding site (TOP-flash) or a mutant β-catenin/Tcf binding site (FOP-flash), respectively, and the Renilla gene. The luciferase activity was normalized to Renilla activity.
(§5) Transient transfection was performed using jetPEI and assays to detect firefly luciferase and Renilla activities according to the manufacturer's manual (Promega). Briefly, cells were seeded onto 10-cm plates and co-transfected with 400 ng of the Renilla luciferase internal control gene and 4 μg of the TOP-flash luciferase reporter construct containing three tandem Tcf consensus binding sites upstream of luciferase cDNA, or the FOPflash luciferase reporter construct, a plasmid with mutated Tcf binding sites. After 16 h of transfection, cells were trypsinized and seeded onto 48-well plates, and cells were treated with respective chemicals for 24 h. Luciferase and Renilla activities were measured using their substrates.

[5] = system: HT-29 colon cancer cells; experiment: Soft agar assay, anchorage-independent growth, HT29; type: cell-based
Description: as §1, §2

[6] = system: β-catenin/Tcf-4 luciferase activity; experiment: β-catenin/Tcf-4 luciferase reporter assay (TOP-flash/FOP-flash) in HT29; type: cell-based; details: normalized to Renilla, 24 h treatment
Description: as §4, §5

[7] = system: β-catenin/Tcf-4 complex; experiment: Immunoprecipitation assay of β-catenin/Tcf-4 complex in colon cancer cells; type: cell-based
Description: Colon cancer cells treated or not treated with low or high concentrations of compounds for 24 h were disrupted with lysis buffer (50 mmol/L Tris, pH 8, 250 mmol/L NaCl, 5 mmol/L EDTA, 0.1% NP-40, 10% glycerol, and 1× protease inhibitor cocktail). Cell lysates were cleared by centrifugation, and immunoprecipitations were performed by incubating overnight with anti-β-catenin. Agarose beads were then added and samples incubated for 3 h at 4° C. After removing unbound proteins by washing five times with lysis buffer, bound proteins were harvested by boiling in sample buffer, and resolved by 8% SDS-PAGE. β-Catenin and Tcf-4 proteins were visualized using a chemiluminescence reagent (Amersham).

[8] = molecular target: T1, Tcf-4 (Homo sapiens, UniProt Q9NQB0); experiment: Ex vivo pull-down with compound-conjugated Sepharose 4B beads and colon cancer cell lysate: Tcf-4; type: binding; details: HCT116 and HT29 cell lysate
T1 construct: Protein extracts (500 μg) of colon cancer cells were mixed with Sepharose-4B beads; endogenous in cells; host or cells: HCT116 and HT29 cell lysate
T1 sequence (Q9NQB0 whole entry): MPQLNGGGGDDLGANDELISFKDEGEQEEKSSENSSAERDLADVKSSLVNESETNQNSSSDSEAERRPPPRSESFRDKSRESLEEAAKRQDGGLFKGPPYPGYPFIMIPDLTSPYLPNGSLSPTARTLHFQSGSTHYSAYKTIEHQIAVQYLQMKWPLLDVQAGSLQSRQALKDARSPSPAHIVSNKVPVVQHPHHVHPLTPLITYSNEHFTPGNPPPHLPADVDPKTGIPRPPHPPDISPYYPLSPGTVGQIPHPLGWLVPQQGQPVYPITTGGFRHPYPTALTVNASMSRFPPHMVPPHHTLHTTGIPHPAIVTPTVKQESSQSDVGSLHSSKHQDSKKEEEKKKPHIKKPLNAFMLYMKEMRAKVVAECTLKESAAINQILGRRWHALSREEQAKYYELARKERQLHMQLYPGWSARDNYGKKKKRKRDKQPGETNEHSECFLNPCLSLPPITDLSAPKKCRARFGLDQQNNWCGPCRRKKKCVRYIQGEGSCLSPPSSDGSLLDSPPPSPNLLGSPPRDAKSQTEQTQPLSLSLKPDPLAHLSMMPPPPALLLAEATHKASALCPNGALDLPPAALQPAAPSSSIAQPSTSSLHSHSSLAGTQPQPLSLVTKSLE
Description: as §3

[9] = molecular target: T2, Tcf-4/β-catenin complex (Homo sapiens, UniProt P35222); experiment: Immunoprecipitation and Western blotting in 293T cells transfected with wildtype or mutant β-catenin; type: cell-based; details: 293T cells transfected with wildtype β-catenin
T2 construct: expressed in transfected cells; host or cells: 293T cells
T2 sequence (P35222 2-781): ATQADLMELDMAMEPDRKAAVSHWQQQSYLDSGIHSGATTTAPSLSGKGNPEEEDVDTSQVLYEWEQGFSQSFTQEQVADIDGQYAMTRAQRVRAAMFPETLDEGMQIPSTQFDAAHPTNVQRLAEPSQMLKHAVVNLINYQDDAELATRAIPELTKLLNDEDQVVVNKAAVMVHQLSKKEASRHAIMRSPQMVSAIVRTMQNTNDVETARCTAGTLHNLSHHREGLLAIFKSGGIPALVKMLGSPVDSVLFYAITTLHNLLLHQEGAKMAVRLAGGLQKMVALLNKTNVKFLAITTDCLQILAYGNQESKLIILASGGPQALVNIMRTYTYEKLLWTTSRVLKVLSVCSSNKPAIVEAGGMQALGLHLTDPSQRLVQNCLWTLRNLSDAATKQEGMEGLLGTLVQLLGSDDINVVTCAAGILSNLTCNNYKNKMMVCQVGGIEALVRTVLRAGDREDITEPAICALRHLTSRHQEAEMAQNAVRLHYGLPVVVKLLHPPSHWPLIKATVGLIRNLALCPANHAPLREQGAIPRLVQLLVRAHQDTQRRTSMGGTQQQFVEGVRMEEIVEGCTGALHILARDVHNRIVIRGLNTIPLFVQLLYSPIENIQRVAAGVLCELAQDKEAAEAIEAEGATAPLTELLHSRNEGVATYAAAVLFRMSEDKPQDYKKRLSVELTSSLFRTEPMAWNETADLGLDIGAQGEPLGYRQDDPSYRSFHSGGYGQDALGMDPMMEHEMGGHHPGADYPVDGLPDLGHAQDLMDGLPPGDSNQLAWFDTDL
Description: (§6) We used computational biology technology and medicinal chemistry to identify potential inhibitors of β-catenin. […] To further confirm binding, wildtype or mutant β-catenin was transfected into 293T cells and immunoprecipitation and Western blotting were performed. […] Overall, esculetin appears to be an effective, non-toxic inhibitor of the Tcf-4/β-catenin complex.

[10] = system: Tcf-4/β-catenin complex; experiment: as above; type: cell-based; details: 293T cells transfected with mutant β-catenin
Description: as §6

[11] = system: xenograft colon cancer tumor; experiment: Xenograft colon cancer tumor growth in nude mice; type: in vivo

SMILES | anchorage-independent growth (colony formation in soft agar) [1] | binding to β-catenin (ex vivo pull-down) [2] | axin2 mRNA expression [3] | c-myc mRNA expression [3] | cyclin D1 mRNA expression [3] | pparδ mRNA expression [3] | transcriptional activity of β-catenin/Tcf-4 (luciferase activity) [4] | anchorage-independent growth (colony formation in soft agar) [5] | transcriptional activity of β-catenin/Tcf-4 (luciferase activity) [6] | Tcf-4 expression level after chemical treatment ([7]; HCT116) | disruption of β-catenin/Tcf-4 complex (immunoprecipitation) ([7]; HCT116 cell line, dose-dependent) | binding to Tcf-4 (ex vivo pull-down) [8] | disruption of wildtype Tcf-4/β-catenin complex [9] | effect on mutant Tcf-4/β-catenin complex [10] | c-Myc and cyclin D1 expression in tumors ([11]; nude mice) | tumor size ([11]; nude mice) | xenograft colon cancer tumor growth ([11]; nude mice) | toxicity ([11]; overall statement) | disruption of nuclear Tcf-4/β-catenin complex ([7]; colon cancer cells)
CC1=C(/C=C/C(=O)/C=C2/C(=O)Nc3ccc(F)cc32)C(C)(C)CCC1 [HI-B5] | suppress anchorage-independent growth | verified the binding; also recorded: can interact with β-catenin | reduced | reduced | reduced | reduced | suppress transcriptional activity of the β-catenin/Tcf-4 in a dose-dependent manner | suppress anchorage-independent growth | suppress transcriptional activity of the β-catenin/Tcf-4 in a dose-dependent manner | not altered | caused disruption of β-catenin/Tcf-4 complex | not Tcf-4 |  |  |  |  |  |  | 
CC1(C)CCC(C)(C)c2cc(C(=O)CC3(O)C(=O)Nc4ccc(F)cc43)ccc21 (stereo not drawn) [HI-B9] | suppress anchorage-independent growth | verified the binding | reduced | reduced | reduced | reduced | suppress transcriptional activity of the β-catenin/Tcf-4 in a dose-dependent manner | suppress anchorage-independent growth | suppress transcriptional activity of the β-catenin/Tcf-4 in a dose-dependent manner |  |  |  |  |  |  |  |  |  | 
O=c1ccc2cc(O)c(O)cc2o1 [esculetin] |  | verified the binding |  |  |  |  | inhibited transcriptional activity of the β-catenin/Tcf complex |  |  |  |  |  | effectively disrupted | had no effect | decreases | significantly smaller | effectively inhibited xenograft colon cancer tumor growth | non-toxic | disrupted the nuclear Tcf-4/β-catenin complex in a dose-dependent manner
